In US20020137929A1, “1 - (3-heterocyclylphenyl) isothiourea, -isourea, -guanidine and -amidine herbicidal agents” (Intellectual Property Department, BASF Aktiengesellschaft, priority 1998, published 2002):

Tests used:
[1] = test system: TRZAWR (Wheat, Winter, cv Riband); assay: Preemergence herbicidal evaluation; type: in vivo, Triticum aestivum; settings: rated 4-5 weeks after treatment
Method in brief: (§1)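 Greenhouse preemergence test: seed-soil mix sown on ~1 inch soil; aqueous acetone spray at equivalent of ~0.0156–0.500 kg/ha; greenhouse-held and watered; scored 0–9 visually at 4–5 weeks.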

CYPIR (Rice Flatsedge) = assay: Preemergence weed control under flooded paddy conditions; type: in vivo, Cyperus iria; settings: rated 3-4 weeks after treatment
Method in brief: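 Seeds or propagules sown in silt loam kept flooded 1.5-3 cm; compounds in 50/50 acetone/water pipetted into flood water at about 0.0313 to 0.500 kg/ha. Greenhouse; visual 0-9 rating versus untreated control 3-4 weeks after treatment.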

ORYSAT (Rice, Tebonnet) [2] = assay: Preemergence herbicidal evaluation; type: in vivo, Oryza sativa, (L.) Tebonnet; settings: rated 4-5 weeks after treatment
Method in brief: as §1

CASOB (Sicklepod) = assay: Postemergence herbicidal evaluation; type: in vivo, Cassia obtusifolia; settings: postemergence
Method in brief: (§2)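 Herbicidal effect was judged by eye on a 0–9 scale covering stand, vigor, deformity, size and chlorosis, compared with controls, four to five weeks after seedlings about two weeks old were sprayed (40 psi, ~0.0156–0.500 kg/ha).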

MOOVA (Monochoria) = assay: Preemergence weed control under flooded paddy conditions; type: in vivo, Monochoria vaginalis; settings: rated 3-4 weeks after treatment
Method in brief: (§3)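 Greenhouse paddy assay. Acetone/water (50/50 v/v) solutions dosed into flood water, equivalent to about 0.0313 to 0.500 kg/ha active ingredient, over seeds planted 0.5 cm deep in silt loam. Score: 0-9 visual, based on stand, vigor, malformation, size and chlorosis, 3 to 4 weeks after treatment.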

CYPSE (Flatsedge) = assay: Postemergence weed control under flooded paddy conditions; type: in vivo, Cyperus serotinus; settings: postemergence weeds, 3-4 weeks after treatment
Method in brief: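 Weeds 3 to 5 cm tall and rice seedlings at the 1.5 to 2.5 leaf stage were flooded, with water held 1.5 to 3 cm above the soil. Compounds in 50/50 v/v aqueous/acetone went into the flood water at about 0.0313 to 0.500 kg/ha. Visual 0-9 ratings versus control were made 3 to 4 weeks later.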

ORYSAT (Rice, Tebonnet) [3] = assay: Postemergence herbicidal evaluation; type: in vivo, Oryza sativa, (L.) Tebonnet; settings: postemergence
Method in brief: as §2

ZEAMX (Corn, Field) = assay: Preemergence herbicidal evaluation; type: in vivo, Zea mays; settings: rated 4-5 weeks after treatment
Method in brief: as §1

SETVI (Foxtail, Green) = assay: Preemergence herbicidal evaluation; type: in vivo, Setaria viridis; settings: rated 4-5 weeks after treatment
Method in brief: as §1

[4] = test system: GLXMAW (Soybean, Williams); assay: Preemergence herbicidal evaluation; type: in vivo, Glycine max, (L.) Merr. cv Williams; settings: rated 4-5 weeks after treatment
Method in brief: as §1

[5] = test system: CHEAL (Lambsquarters, Common); assay: Postemergence herbicidal evaluation; type: in vivo, Chenopodium album; settings: postemergence
Method in brief: as §2

[6] = test system: SAGPY (Arrowhead (Pygmaea)); assay: Preemergence weed control under flooded paddy conditions; type: in vivo, Sagittaria pygmaea; settings: rated 3-4 weeks after treatment
Method in brief: as §3

ECHCG (Barnyardgrass) = assay: Postemergence herbicidal evaluation; type: in vivo, Echinochloa crus-galli; settings: postemergence
Method in brief: as §2

SMILES: C=CCN1C(=O)CSC1=Nc1cc(N2C(=O)C3=C(CCCC3)C2=O)c(F)cc1Cl [Compound 2, N-{5-[(3-allyl-4-oxo-2-thiazolidinylidene)amino]-4-chloro-2-fluorophenyl}-1-cyclohexene-1,2-dicarboximide]
- TRZAWR preemergence herbicidal rating ([1]; rate 0.0313 kg/ha): 0.0
- TRZAWR preemergence herbicidal rating ([1]; rate 0.0625 kg/ha): 0.0
- TRZAWR preemergence herbicidal rating ([1]; rate 0.1250 kg/ha): 0.0
- TRZAWR preemergence herbicidal rating ([1]; rate 0.2500 kg/ha): 0.0
- TRZAWR preemergence herbicidal rating ([1]; rate 0.5000 kg/ha): 0.0
- Herbicidal rating CYPIR (CYPIR (Rice Flatsedge); 0.0313 kg/ha): 0.0
- Herbicidal rating CYPIR (CYPIR (Rice Flatsedge); 0.0625 kg/ha): 0.0
- Herbicidal rating CYPIR (CYPIR (Rice Flatsedge); 0.1250 kg/ha): 0.0
- Herbicidal rating CYPIR (CYPIR (Rice Flatsedge); 0.2500 kg/ha): 0.0
- Herbicidal rating CYPIR (CYPIR (Rice Flatsedge); 0.5000 kg/ha): 1.0
- ORYSAT preemergence herbicidal rating (ORYSAT (Rice, Tebonnet) [2]; rate 0.0313 kg/ha): 2.0
- ORYSAT preemergence herbicidal rating (ORYSAT (Rice, Tebonnet) [2]; rate 0.0625 kg/ha): 2.0
- ORYSAT preemergence herbicidal rating (ORYSAT (Rice, Tebonnet) [2]; rate 0.1250 kg/ha): 2.0
- ORYSAT preemergence herbicidal rating (ORYSAT (Rice, Tebonnet) [2]; rate 0.2500 kg/ha): 2.0
- ORYSAT preemergence herbicidal rating (ORYSAT (Rice, Tebonnet) [2]; rate 0.5000 kg/ha): 3.0
- CASOB herbicidal rating (CASOB (Sicklepod); rate 0.0157 kg/ha): 4.0
- CASOB herbicidal rating (CASOB (Sicklepod); rate 0.0313 kg/ha): 4.0
- CASOB herbicidal rating (CASOB (Sicklepod); rate 0.0625 kg/ha): 2.0
- CASOB herbicidal rating (CASOB (Sicklepod); rate 0.1250 kg/ha): 2.0
- CASOB herbicidal rating (CASOB (Sicklepod); rate 0.2500 kg/ha): 4.0
- CASOB herbicidal rating (CASOB (Sicklepod); rate 0.5000 kg/ha): 7.0
- Herbicidal rating MOOVA (MOOVA (Monochoria); 0.0313 kg/ha): 4.0
- Herbicidal rating MOOVA (MOOVA (Monochoria); 0.0625 kg/ha): 9.0
- Herbicidal rating MOOVA (MOOVA (Monochoria); 0.1250 kg/ha): 9.0
- Herbicidal rating MOOVA (MOOVA (Monochoria); 0.2500 kg/ha): 9.0
- Herbicidal rating MOOVA (MOOVA (Monochoria); 0.5000 kg/ha): 9.0
- Herbicidal rating CYPSE (CYPSE (Flatsedge); rate 0.0313 kg/ha): 0.0
- Herbicidal rating CYPSE (CYPSE (Flatsedge); rate 0.0625 kg/ha): 0.0
- Herbicidal rating CYPSE (CYPSE (Flatsedge); rate 0.1250 kg/ha): 0.0
- Herbicidal rating CYPSE (CYPSE (Flatsedge); rate 0.2500 kg/ha): 0.0
- Herbicidal rating CYPSE (CYPSE (Flatsedge); rate 0.5000 kg/ha): 0.0
- ORYSAT herbicidal rating (ORYSAT (Rice, Tebonnet) [3]; rate 0.0157 kg/ha): 3.0
- ORYSAT herbicidal rating (ORYSAT (Rice, Tebonnet) [3]; rate 0.0313 kg/ha): 3.0
- ORYSAT herbicidal rating (ORYSAT (Rice, Tebonnet) [3]; rate 0.0625 kg/ha): 3.0
- ORYSAT herbicidal rating (ORYSAT (Rice, Tebonnet) [3]; rate 0.1250 kg/ha): 3.5
- ORYSAT herbicidal rating (ORYSAT (Rice, Tebonnet) [3]; rate 0.2500 kg/ha): 3.5
- ORYSAT herbicidal rating (ORYSAT (Rice, Tebonnet) [3]; rate 0.5000 kg/ha): 3.0
- ZEAMX preemergence herbicidal rating (ZEAMX (Corn, Field); rate 0.0313 kg/ha): 0.0
- ZEAMX preemergence herbicidal rating (ZEAMX (Corn, Field); rate 0.0625 kg/ha): 0.0
- ZEAMX preemergence herbicidal rating (ZEAMX (Corn, Field); rate 0.1250 kg/ha): 0.0
- ZEAMX preemergence herbicidal rating (ZEAMX (Corn, Field); rate 0.2500 kg/ha): 0.0
- ZEAMX preemergence herbicidal rating (ZEAMX (Corn, Field); rate 0.5000 kg/ha): 0.0
- SETVI preemergence herbicidal rating (SETVI (Foxtail, Green); rate 0.0313 kg/ha): 0.0
- SETVI preemergence herbicidal rating (SETVI (Foxtail, Green); rate 0.0625 kg/ha): 0.0
- SETVI preemergence herbicidal rating (SETVI (Foxtail, Green); rate 0.1250 kg/ha): 6.0
- SETVI preemergence herbicidal rating (SETVI (Foxtail, Green); rate 0.2500 kg/ha): 6.0
- SETVI preemergence herbicidal rating (SETVI (Foxtail, Green); rate 0.5000 kg/ha): 9.0
- GLXMAW preemergence herbicidal rating ([4]; rate 0.0313 kg/ha): 0.0
- GLXMAW preemergence herbicidal rating ([4]; rate 0.0625 kg/ha): 0.0
- GLXMAW preemergence herbicidal rating ([4]; rate 0.1250 kg/ha): 0.0
- GLXMAW preemergence herbicidal rating ([4]; rate 0.2500 kg/ha): 0.0
- GLXMAW preemergence herbicidal rating ([4]; rate 0.5000 kg/ha): 1.0
- CHEAL herbicidal rating ([5]; rate 0.0157 kg/ha): 7.0
- CHEAL herbicidal rating ([5]; rate 0.0313 kg/ha): 6.0
- CHEAL herbicidal rating ([5]; rate 0.0625 kg/ha): 8.0
- CHEAL herbicidal rating ([5]; rate 0.1250 kg/ha): 9.0
- CHEAL herbicidal rating ([5]; rate 0.2500 kg/ha): 7.0
- CHEAL herbicidal rating ([5]; rate 0.5000 kg/ha): 9.0
- Herbicidal rating SAGPY ([6]; 0.0313 kg/ha): 0.0
- Herbicidal rating SAGPY ([6]; 0.0625 kg/ha): 0.0
- Herbicidal rating SAGPY ([6]; 0.1250 kg/ha): 0.0
- Herbicidal rating SAGPY ([6]; 0.2500 kg/ha): 0.0
- Herbicidal rating SAGPY ([6]; 0.5000 kg/ha): 0.0
- ECHCG herbicidal rating (ECHCG (Barnyardgrass); rate 0.0157 kg/ha): 0.0
- ECHCG herbicidal rating (ECHCG (Barnyardgrass); rate 0.0313 kg/ha): 0.0
- ECHCG herbicidal rating (ECHCG (Barnyardgrass); rate 0.0625 kg/ha): 0.0
- ECHCG herbicidal rating (ECHCG (Barnyardgrass); rate 0.1250 kg/ha): 0.0
- ECHCG herbicidal rating (ECHCG (Barnyardgrass); rate 0.2500 kg/ha): 0.0
- ECHCG herbicidal rating (ECHCG (Barnyardgrass); rate 0.5000 kg/ha): 0.0
